The values that follow come from US20260284152A1, “COMPOSITION COMPRISING GV1001 FOR PREVENTING OR TREATING MACULAR DEGENERATION” (GEMVAX & KAEL CO., LTD., priority 2023, published 2026).

The subject of assay [1] is retinal pigment epithelial cell line ARPE-19. Briefly: Reduction of epithelial-mesenchymal transition (cadherin 1 / vimentin, confocal microscope) in H2O2-treated retinal pigment epithelial cells. It counts as cell-based. Conditions: ARPE-19, H2O2 50 μM. An excerpt: (§1) Reactive oxygen species were generated by treating retinal pigment epithelial cell line ARPE-19 with hydrogen peroxide (H2O2).
(§2) Degenerated retinal pigment epithelial cells that appear in age-related macular degeneration were set as a model cell line, and epithelial loss of retinal pigment epithelial cells was induced.
The degree of epithelial-mesenchymal transition, which indicates degeneration of retinal pigment epithelial cells, was confirmed by observing changes in cadherin 1 as an epithelial cell marker, and vimentin as a mesenchymal cell marker, using a confocal microscope, and the results are shown in FIG. 7.

For assay [2] the test system is unchanged. Briefly: Reduction of reactive oxygen species (DCF-DA fluorescence) in H2O2-treated retinal pigment epithelial cells. It counts as cell-based.
From the text: as §1, §2
Using DCF-DA as a reactive oxygen species dye sample, the change in the level of reactive oxygen species in retinal pigment epithelial cells (ARPE-19) induced by GV1001 was confirmed by fluorescence microscopy, and the results are shown in FIGS. 6A and 6B. DCF-DA fluorescence intensity increased when oxidative stress was induced by H2O2, but decreased by treatment with metformin, a positive control.

Assay [3] deals with C57BL/6 mice injected with NaIO3. The experiment in a line: Short-term administration in NaIO3 mouse model of age-related macular degeneration (RPE/choroid flat mount, phalloidin). It counts as in vivo. The following applies: NaIO3 20 mg/kg IV mice. An excerpt: Mice injected with sodium iodate (NaIO3) are used as a representative model of age-related macular degeneration. A mouse model of age-related macular degeneration was established by injecting NaIO3 into C57BL/6 mice, thereby inducing oxidative stress specific to retinal pigment epithelial cells and causing damage.
To determine whether the disruption of tight junctions in the retinal pigment epithelium caused by NaIO3 administration was inhibited by GV1001, the retinal pigment epithelium/choroid (RPE/choroid) was flat-mounted, and the junctions between epithelial cells were stained with phalloidin samples and observed using a confocal microscope.
To determine whether the disruption of tight junctions in the retinal pigment epithelial cell layer was inhibited by GV1001, the retinal pigment epithelial layer/choroid was flat-mounted, and the junctions between epithelial cells were stained with phalloidin and observed using a confocal microscope.

For assay [4] the test system is unchanged. The experiment in a line: Long-term administration in NaIO3 mouse model of age-related macular degeneration (RPE/choroid flat mount, phalloidin). It is filed as in vivo. Conditions: NaIO3 20 mg/kg IV mice; for Tight junction structure of the retinal pigment epithelium: long-term post-treatment; for Tight junction structure of the retinal pigment epithelial layer: long-term pre-treatment. An excerpt: A mouse model of age-related macular degeneration was established by injecting […] into C57BL/6 mice and inducing oxidative stress specifically in retinal pigment epithelial cells to cause damage.
The GV1001 dose determined through an efficacy evaluation test by short-term administration was used for efficacy evaluation in long-term administration.
The animal experimental group for verification of efficacy in reducing retinal pigment epithelial degeneration by long-term administration (3 months) of GV1001 was set up as shown in Table 4 below.
To determine whether the disruption of tight junctions in the retinal pigment epithelium was inhibited by GV1001, the retinal pigment epithelium/choroid was flat-mounted, and the junctions between epithelial cells were stained with phalloidin-stained samples and observed using a confocal microscope to determine the degree of disruption of tight junctions.
To determine whether the disruption of the tight junctions in the retinal pigment epithelium was reduced by long-term GV1001 administration, the retinal pigment epithelium/choroid was flat-mounted, and the junctions between epithelial cells were stained with phalloidin and observed using a confocal microscope.

As to `CN(C)C(=N)N=C(N)N` [metformin, reference compound], the “Epithelial-mesenchymal transition (cadherin 1, vimentin)” value in assay [1] (metformin 1 mM positive control) is “reduced”. The “DCF-DA fluorescence intensity (reactive oxygen species)” value in assay [2] (ARPE-19, H2O2 50 μM oxidative stress, metformin 1 mM positive control) is recorded as “decreased”. The “Tight junction structure of the retinal pigment epithelial cell layer” value in assay [3] (metformin 4 mg/mL in drinking water for 7 days before NaIO3) is “maintained”.

On to “GV1001: A peptide consisting of 16 amino acids, having the amino acid sequence of SEQ ID NO: 1, derived from human telomerase (EARPALLTSRLRFIPK; UniProt O14746 611-626, looked up, fragment)”, for which the “Epithelial-mesenchymal transition (cadherin 1, vimentin)” value in assay [1] (post-treatment, 10 μM) is reported as “reduced”; in assay [1] (pre-treatment, 0.01 μM) it was “reduced”. In addition, the “DCF-DA fluorescence intensity (reactive oxygen species)” value is on record as “decreased” in assay [2] (ARPE-19, H2O2 50 μM, post-treatment (2 h after 24 h H2O2), 0.1 μM); “decreased” in assay [2] (ARPE-19, H2O2 50 μM, post-treatment (2 h after 24 h H2O2), 10 μM); “decreased” in assay [2] (ARPE-19, H2O2 50 μM, pre-treatment (2 h before 24 h H2O2), 0.01 μM). The “Tight junction structure of the retinal pigment epithelial cell layer” value in assay [3] (short-term post-treatment, 0.5 mg/kg SC three times within one week from 10 days after NaIO3) is “maintained”; in assay [3] (short-term post-treatment, 1.0 mg/kg SC three times within one week from 10 days after NaIO3), “maintained”; in assay [3] (short-term pre-treatment, 0.1 mg/kg SC three times a week for two weeks), “maintained”. In addition, the “Tight junction structure of the retinal pigment epithelium” value in assay [4] (0.1 mg/kg SC three times a week for 10 weeks) and in assay [4] (1.0 mg/kg SC three times a week for 10 weeks) was “well maintained” each time. In addition, the “Tight junction structure of the retinal pigment epithelial layer” value in assay [4] (0.1 mg/kg SC three times a week for 12 weeks) and in assay [4] (1.0 mg/kg SC three times a week for 12 weeks) was “well maintained” in each case.
